Laboratory results: patent publication US10501516B2, “Peptide compound” (TAKEDA PHARMACEUTICAL COMPANY LIMITED, priority 2016, dated 2019)
Square brackets hold non-standard residues; d marks the D form. Side chains are listed from the residue outwards. Peptide text beside a SMILES is read from it. * marks the point of attachment. NMeY = CN[C@@H](Cc1ccc(O)cc1)C(=O)O; Palmitoyl = CCCCCCCCCCCCCCCC(=O)*; αMeF = C[C@](N)(Cc1ccccc1)C(=O)O; Iva = CC[C@](C)(N)C(=O)O; Aib = CC(C)(N)C(=O)O

Experiments:
Male KKA^y mice = test: Repeated administration in KKA^y mice; assay type: in vivo, mouse; conditions: for ALT / AST / TC / TG: plasma, mean ± SD
Experimental: Male KKA^y mice (10 weeks old) were divided into the groups based on the data of body weight, food intake, glycated hemoglobin (GHb), and plasma parameters. P41 was subcutaneously administered once a day for 4 weeks. Compounds were dissolved in 10% DMSO/saline. Body weight and food intake were monitored during the study. After the study, blood was collected and GHb and plasma parameters were measured. The animals were sacrificed, and the liver and the adipose tissues were dissected and weighed. Lipid was extracted from a piece of liver tissue and liver triglyceride (TG) content was measured.
Plasma glucose and TG were measured by Autoanalyzer 7180 (Hitachi High-Technologies Corporation, Japan). Blood GHb was measured with the automated GHb analyzers (HLC-723G8, Tosoh, Tokyo, Japan). Plasma insulin was measured with ELISA Assay kit (Shibayagi Co. Ltd., Japan). Liver TG content was measured as follows: a piece of tissue was homogenized in saline and lipid was extracted by the addition of hexane:isopropanol (3:2) solution. The lipid phase was collected, dried and then dissolved in isopropanol. The concentration of TG was measured by Triglyceride E-test (Wako Pure Chemical Industries) and TG content per g liver was calculated.

Male ob/ob mice = test: Repeated dosing study in ob/ob mice; assay type: in vivo, mouse; conditions: for ALT / AST / TC / TG: plasma, mean ± SD
Experimental: Male ob/ob mice (9 weeks old) were divided into the groups based on the data of body weight, food intake, and plasma parameters. Vehicle or P41 was subcutaneously administered once a day for 4 weeks. Body weight and food intake were monitored during the study. Compounds were dissolved in 10% DMSO/saline. After the study, blood was collected and plasma parameters were measured. At day 29, the animals were sacrificed.
Plasma glucose, triglyceride (TG), total cholesterol (TC), aspartate aminotransferase (AST), and alanine aminotransferase (ALT) were analyzed by Autoanalyzer 7180 (Hitachi High-Technologies Corporation, Japan). Blood glycated hemoglobin (GHb) was measured with the automated GHb analyzers (HLC-723G8, Tosoh, Tokyo, Japan). Liver triglyceride content was measured as follows: a piece of tissue was homogenized in saline and lipid was extracted by the addition of hexane:isopropanol (3:2) solution. The lipid phase was collected, dried and then dissolved in isopropanol. The concentration of triglyceride was measured by Triglyceride E-test (Wako Pure Chemical Industries, Ltd, Japan) and triglyceride content per g liver was calculated. Plasma insulin was measured with ELISA Assay kit (Shibayagi Co. Ltd., Japan).

[1] = 10 nmol/kg s.c. once a day for 4 weeks
[2] = 30 nmol/kg s.c. once a day for 4 weeks
[3] = 100 nmol/kg s.c. once a day for 4 weeks
[4] = 10, 30 and 100 nmol/kg s.c. once a day for 4 weeks

Structure (SMILES): CCCCCCCCCCCCCCCC(=O)NCC(=O)NCC(=O)NCC(=O)NCC(=O)NCCCC[C@H](NC(=O)[C@H](CC(=O)O)NC(=O)[C@H](CO)NC(=O)[C@@H](NC(=O)[C@](C)(Cc1ccccc1)NC(=O)[C@@H](NC(=O)CNC(=O)[C@H](CCC(=O)O)NC(=O)C(C)(C)NC(=O)[C@H](Cc1ccc(O)cc1)NC)[C@@H](C)O)[C@@H](C)O)C(=O)N[C@@H](CO)C(=O)N[C@H](C(=O)NC(C)(C)C(=O)N[C@@H](CC(C)C)C(=O)N[C@@H](CCC(=O)O)C(=O)N[C@@H](CCCCN)C(=O)N[C@@H](CCC(N)=O)C(=O)N[C@@H](CCCNC(=N)N)C(=O)N[C@@H](CCC(N)=O)C(=O)N[C@@](C)(CC)C(=O)N[C@@H](CCC(=O)O)C(=O)N[C@@H](Cc1ccccc1)C(=O)N[C@H](C(=O)N[C@@H](CCCNC(=N)N)C(=O)N[C@@H](Cc1c[nH]cn1)C(=O)N[C@@H](CC(C)C)C(=O)N[C@@H](CC(C)C)C(=O)N[C@@H](CC(N)=O)C(=O)N[C@@H](CCCCN)C(=O)NC(C)(C)C(=O)N[C@H](C(=O)N[C@@H](CCCNC(=N)N)C(=O)N[C@@H](CCC(N)=O)C(=O)N[C@@H](CCCNC(=N)N)C(=O)N[C@@H](Cc1ccc(O)cc1)C(N)=O)[C@@H](C)O)C(C)C)[C@@H](C)CC [Example 41] (H-[NMeY][Aib]EGT[αMeF]TSDK([Gly-Gly-Gly-Gly-Palmitoyl])SI[Aib]LEKQRQ[Iva]EFVRHLLNK[Aib]TRQRY-NH2)
- decrease in body weight compared with vehicle group (Male KKA^y mice; [1]): 4.2%
- decrease in body weight compared with vehicle group (Male KKA^y mice; [2]): 9.8%
- decrease in body weight compared with vehicle group (Male KKA^y mice; [3]): 30.1%
- GHb, PG and plasma insulin levels (Male KKA^y mice; [4]): dose-dependent and significant decrease
- liver tissue weight (Male KKA^y mice; [4]): Comparable reduction
- ALT (Male KKA^y mice; [1]): 31.3 ± 9.7 U/L
- AST (Male KKA^y mice; [1]): 53.4 ± 11.9 U/L
- TC (Male KKA^y mice; [1]): 139.3 ± 19.0 mg/dL
- TG (Male KKA^y mice; [1]): 357.1 ± 76.9 mg/dL
- ALT (Male KKA^y mice; [2]): 24.9 ± 2.1 U/L
- AST (Male KKA^y mice; [2]): 48.9 ± 8.6 U/L
- TC (Male KKA^y mice; [2]): 155.9 ± 20.1 mg/dL
- TG (Male KKA^y mice; [2]): 210.1 ± 53.3 mg/dL
- ALT (Male KKA^y mice; [3]): 21.7 ± 7.6 U/L
- AST (Male KKA^y mice; [3]): 52.6 ± 7.3 U/L
- TC (Male KKA^y mice; [3]): 131.4 ± 14.0 mg/dL
- TG (Male KKA^y mice; [3]): 138.1 ± 54.4 mg/dL
- GHb (Male ob/ob mice; [4]): significant decrease
- body weight and cumulative food intake (Male ob/ob mice; [4]): dose-dependent body weight and cumulative food intake reduction
- plasma glucose levels (Male ob/ob mice; [4]): significant decrease
- plasma insulin levels (Male ob/ob mice; [4]): Dose-dependent decrease
- liver and mesenteric, epididymal, and inguinal adipose tissue weight, and liver TG content (Male ob/ob mice; 10, 30 and 100 nmol/kg s.c. once a day for 4 weeks, dose-dependent): decreased
- ALT (Male ob/ob mice; [1]): 50.6 ± 23.8 U/L
- AST (Male ob/ob mice; [1]): 82.3 ± 25.0 U/L
- TC (Male ob/ob mice; [1]): 137.0 ± 12.7 mg/dL
- TG (Male ob/ob mice; [1]): 52.4 ± 13.0 mg/dL
- ALT (Male ob/ob mice; [2]): 38.3 ± 9.3 U/L
- AST (Male ob/ob mice; [2]): 83.5 ± 21.5 U/L
- TG (Male ob/ob mice; [2]): 51.6 ± 14.2 mg/dL
- ALT (Male ob/ob mice; [3]): 41.6 ± 10.1 U/L
- AST (Male ob/ob mice; [3]): 77.7 ± 13.1 U/L
- TC (Male ob/ob mice; [3]): 136.8 ± 6.1 mg/dL
- TG (Male ob/ob mice; [3]): 46.9 ± 12.9 mg/dL
